What all share (experiment): KINOMEscan competition binding
One test deals with CIT (Homo sapiens, UniProt O14578). The settings on record: read-out: %Inh CIT.
Another test addresses T1, EPHA8 (Homo sapiens, UniProt P29322).
T1 sequence (P29322 28-1005): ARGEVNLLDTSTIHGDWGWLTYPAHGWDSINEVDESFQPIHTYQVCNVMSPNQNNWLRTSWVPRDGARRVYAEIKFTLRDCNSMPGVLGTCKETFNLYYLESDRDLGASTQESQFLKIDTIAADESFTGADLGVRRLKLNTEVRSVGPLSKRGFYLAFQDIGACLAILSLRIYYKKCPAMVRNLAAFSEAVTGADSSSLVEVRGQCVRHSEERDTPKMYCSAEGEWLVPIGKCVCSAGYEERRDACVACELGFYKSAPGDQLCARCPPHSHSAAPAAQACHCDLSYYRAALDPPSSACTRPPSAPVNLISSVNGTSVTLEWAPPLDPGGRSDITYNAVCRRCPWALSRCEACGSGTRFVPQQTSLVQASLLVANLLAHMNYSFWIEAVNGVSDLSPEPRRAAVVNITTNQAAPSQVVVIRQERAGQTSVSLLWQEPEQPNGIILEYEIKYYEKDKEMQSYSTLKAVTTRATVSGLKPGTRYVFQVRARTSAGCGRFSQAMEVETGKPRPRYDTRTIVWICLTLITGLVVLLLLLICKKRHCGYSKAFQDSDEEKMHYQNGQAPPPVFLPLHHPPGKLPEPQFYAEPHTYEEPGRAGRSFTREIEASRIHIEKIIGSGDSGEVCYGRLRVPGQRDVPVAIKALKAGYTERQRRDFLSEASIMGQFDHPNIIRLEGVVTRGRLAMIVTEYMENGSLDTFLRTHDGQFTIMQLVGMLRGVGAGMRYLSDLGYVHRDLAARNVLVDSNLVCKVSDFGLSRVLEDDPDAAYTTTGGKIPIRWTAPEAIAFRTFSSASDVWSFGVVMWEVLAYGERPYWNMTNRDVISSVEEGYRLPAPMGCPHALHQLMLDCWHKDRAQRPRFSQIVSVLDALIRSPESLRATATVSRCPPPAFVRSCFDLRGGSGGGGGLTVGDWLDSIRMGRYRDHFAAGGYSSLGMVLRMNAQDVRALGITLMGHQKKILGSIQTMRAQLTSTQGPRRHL
The conditions noted are these: read-out: %Inh EPHA8.

Another test has as its target T2, EPHB6 (Homo sapiens, UniProt O15197).
T2 sequence (O15197 32-1021): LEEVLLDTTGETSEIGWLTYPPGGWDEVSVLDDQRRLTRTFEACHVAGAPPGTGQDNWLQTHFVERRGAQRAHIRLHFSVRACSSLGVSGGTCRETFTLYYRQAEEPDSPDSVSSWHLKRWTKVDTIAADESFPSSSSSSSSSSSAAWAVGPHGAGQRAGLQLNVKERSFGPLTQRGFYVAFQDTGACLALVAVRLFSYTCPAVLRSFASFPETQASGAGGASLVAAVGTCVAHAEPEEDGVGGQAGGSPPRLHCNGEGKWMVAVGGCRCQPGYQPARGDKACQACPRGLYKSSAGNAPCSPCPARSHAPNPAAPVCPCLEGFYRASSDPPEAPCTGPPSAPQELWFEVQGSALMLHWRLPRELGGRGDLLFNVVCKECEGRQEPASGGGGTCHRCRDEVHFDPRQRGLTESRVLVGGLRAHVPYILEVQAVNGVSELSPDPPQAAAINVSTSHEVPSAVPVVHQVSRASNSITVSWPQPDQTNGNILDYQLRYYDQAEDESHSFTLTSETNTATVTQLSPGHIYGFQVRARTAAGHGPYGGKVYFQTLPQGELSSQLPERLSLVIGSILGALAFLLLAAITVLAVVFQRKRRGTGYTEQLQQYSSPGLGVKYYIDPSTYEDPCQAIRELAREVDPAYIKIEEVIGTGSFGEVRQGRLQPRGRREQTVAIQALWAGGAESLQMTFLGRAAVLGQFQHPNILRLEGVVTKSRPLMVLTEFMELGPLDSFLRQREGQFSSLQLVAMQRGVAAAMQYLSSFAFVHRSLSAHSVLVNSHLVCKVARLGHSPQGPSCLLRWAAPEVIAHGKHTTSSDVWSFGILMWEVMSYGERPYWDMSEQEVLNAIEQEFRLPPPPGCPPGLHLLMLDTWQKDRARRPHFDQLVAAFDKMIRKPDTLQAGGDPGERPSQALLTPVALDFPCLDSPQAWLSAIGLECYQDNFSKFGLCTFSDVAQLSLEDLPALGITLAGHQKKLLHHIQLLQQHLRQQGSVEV
The conditions noted are these: read-out: %Inh EPHB6.

For the next test, the target named is FGFR4 (Homo sapiens, UniProt P22455). The conditions noted are these: read-out: %Inh FGFR4.
Chain of FGFR4 (P22455 22-802): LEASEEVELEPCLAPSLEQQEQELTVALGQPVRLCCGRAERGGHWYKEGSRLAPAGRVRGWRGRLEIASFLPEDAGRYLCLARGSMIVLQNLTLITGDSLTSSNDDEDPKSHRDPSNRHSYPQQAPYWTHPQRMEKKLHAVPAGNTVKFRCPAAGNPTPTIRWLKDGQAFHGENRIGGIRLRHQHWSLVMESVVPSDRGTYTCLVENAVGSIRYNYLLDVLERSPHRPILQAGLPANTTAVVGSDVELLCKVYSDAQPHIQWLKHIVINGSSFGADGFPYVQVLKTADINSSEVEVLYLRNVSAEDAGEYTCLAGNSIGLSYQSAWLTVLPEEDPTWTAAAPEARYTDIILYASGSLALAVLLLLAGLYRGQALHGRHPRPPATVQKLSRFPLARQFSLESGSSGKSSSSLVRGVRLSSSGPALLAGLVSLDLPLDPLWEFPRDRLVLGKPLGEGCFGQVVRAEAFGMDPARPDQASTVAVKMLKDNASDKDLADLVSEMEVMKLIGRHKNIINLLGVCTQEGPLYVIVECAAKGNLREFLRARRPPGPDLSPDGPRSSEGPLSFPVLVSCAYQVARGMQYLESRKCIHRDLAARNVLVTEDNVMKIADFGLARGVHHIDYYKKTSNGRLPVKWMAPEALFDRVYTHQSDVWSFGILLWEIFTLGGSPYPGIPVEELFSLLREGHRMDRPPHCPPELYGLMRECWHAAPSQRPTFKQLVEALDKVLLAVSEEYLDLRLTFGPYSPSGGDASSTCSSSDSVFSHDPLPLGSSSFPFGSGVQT
A further test concerns the target CDK4 (Homo sapiens, UniProt P11802). The conditions noted are these: read-out: %Inh CDK4.
Another test concerns the target CDK5 (Homo sapiens, UniProt Q00535). The conditions noted are these: read-out: %Inh CDK5.
The target of another test is CSNK1G3 (Homo sapiens, UniProt Q9Y6M4). The conditions noted are these: read-out: %Inh CSNK1G3.
Chain of CSNK1G3 (Q9Y6M4 whole entry): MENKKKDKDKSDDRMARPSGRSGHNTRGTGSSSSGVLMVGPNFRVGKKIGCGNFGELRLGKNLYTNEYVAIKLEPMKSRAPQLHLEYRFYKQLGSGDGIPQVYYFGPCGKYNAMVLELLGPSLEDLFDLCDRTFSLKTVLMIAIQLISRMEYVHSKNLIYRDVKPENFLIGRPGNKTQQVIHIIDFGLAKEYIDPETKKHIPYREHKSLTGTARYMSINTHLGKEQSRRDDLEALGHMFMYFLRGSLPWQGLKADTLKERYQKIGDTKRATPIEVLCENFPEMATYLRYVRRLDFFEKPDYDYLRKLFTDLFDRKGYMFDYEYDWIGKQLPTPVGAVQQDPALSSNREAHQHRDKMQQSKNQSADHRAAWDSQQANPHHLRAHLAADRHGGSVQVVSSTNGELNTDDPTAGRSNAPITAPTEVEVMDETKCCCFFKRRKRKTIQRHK
For another test, the target named is T3, ACVR1B (Homo sapiens, UniProt P36896).
T3 sequence (P36896 24-505): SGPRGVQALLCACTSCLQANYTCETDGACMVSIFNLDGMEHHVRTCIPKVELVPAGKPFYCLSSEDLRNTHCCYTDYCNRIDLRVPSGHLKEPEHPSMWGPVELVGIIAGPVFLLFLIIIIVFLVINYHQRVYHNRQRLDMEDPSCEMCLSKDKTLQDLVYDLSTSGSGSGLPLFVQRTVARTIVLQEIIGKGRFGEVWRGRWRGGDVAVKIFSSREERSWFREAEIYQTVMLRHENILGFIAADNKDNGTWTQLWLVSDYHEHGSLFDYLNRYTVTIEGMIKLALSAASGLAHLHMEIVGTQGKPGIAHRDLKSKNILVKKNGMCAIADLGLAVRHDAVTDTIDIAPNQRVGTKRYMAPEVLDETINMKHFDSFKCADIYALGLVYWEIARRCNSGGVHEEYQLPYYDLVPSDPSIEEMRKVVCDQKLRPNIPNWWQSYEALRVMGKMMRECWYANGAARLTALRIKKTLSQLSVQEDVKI
The conditions noted are these: read-out: %Inh ACVR1B.

Chain of CDK5 (Q00535 whole entry): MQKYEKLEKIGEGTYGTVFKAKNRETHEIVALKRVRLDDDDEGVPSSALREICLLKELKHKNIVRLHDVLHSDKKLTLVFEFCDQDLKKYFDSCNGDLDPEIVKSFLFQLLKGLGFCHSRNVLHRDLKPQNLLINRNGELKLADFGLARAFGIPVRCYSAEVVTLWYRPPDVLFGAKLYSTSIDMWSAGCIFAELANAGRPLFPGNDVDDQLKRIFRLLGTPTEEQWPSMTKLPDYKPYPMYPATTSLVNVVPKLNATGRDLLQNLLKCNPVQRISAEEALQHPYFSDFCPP
Chain of CDK4 (P11802 whole entry): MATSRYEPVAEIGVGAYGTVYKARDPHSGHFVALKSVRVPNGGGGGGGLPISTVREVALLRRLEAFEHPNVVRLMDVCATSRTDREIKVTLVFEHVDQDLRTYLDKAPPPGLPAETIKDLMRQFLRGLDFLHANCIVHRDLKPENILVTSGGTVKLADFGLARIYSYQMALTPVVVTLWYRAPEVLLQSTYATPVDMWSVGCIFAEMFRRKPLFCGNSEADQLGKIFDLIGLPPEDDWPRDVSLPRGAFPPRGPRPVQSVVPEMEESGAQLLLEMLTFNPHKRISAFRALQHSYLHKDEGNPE
Chain of CIT (O14578 whole entry): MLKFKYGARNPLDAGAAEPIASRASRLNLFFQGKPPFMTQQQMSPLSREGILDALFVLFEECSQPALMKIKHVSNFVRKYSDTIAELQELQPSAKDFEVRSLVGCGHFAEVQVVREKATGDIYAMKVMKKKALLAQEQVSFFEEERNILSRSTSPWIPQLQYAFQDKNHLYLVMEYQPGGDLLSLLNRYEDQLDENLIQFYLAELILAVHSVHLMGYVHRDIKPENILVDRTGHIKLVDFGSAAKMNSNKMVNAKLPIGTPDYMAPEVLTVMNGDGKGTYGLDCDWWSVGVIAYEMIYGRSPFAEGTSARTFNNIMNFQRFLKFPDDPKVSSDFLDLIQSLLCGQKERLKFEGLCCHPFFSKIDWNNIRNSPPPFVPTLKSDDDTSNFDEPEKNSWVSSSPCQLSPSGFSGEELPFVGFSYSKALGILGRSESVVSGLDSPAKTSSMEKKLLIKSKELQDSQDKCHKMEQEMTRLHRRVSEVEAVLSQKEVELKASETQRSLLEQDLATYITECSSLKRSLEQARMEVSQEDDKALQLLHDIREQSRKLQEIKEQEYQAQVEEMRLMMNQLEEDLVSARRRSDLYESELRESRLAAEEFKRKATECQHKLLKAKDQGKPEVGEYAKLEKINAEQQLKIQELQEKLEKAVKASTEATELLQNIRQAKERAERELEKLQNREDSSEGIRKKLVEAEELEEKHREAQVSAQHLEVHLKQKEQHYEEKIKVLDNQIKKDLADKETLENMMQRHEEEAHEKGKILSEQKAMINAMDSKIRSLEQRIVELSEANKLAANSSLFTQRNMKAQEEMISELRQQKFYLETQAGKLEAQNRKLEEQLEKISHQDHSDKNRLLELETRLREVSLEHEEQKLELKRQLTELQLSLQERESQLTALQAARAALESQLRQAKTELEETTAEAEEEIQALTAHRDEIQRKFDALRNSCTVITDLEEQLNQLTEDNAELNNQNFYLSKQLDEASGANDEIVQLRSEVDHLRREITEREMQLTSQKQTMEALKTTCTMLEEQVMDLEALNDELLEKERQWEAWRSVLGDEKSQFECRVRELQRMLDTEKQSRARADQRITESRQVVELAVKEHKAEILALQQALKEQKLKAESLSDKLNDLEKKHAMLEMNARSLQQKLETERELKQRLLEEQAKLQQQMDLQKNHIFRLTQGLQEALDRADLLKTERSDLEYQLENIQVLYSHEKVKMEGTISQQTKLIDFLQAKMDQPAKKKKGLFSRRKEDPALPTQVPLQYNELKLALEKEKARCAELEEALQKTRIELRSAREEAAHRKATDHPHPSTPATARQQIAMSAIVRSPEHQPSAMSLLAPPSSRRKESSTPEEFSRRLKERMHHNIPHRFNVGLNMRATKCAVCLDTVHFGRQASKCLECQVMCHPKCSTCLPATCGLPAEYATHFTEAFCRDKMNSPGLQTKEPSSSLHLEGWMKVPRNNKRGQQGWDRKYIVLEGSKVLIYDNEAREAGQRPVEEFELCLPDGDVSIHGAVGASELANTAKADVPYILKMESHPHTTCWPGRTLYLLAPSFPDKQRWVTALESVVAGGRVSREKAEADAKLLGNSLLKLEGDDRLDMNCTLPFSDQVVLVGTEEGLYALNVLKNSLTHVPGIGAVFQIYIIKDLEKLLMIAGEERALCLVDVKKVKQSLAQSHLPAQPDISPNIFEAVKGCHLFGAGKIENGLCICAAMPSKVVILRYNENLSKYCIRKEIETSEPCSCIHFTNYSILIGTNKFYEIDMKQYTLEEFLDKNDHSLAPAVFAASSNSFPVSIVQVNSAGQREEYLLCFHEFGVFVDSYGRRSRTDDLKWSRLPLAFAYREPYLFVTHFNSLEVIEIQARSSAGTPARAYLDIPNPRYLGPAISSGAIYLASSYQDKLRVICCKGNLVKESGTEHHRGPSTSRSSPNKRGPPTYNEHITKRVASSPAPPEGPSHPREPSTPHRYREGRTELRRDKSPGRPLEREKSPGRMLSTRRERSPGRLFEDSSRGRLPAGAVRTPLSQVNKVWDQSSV

Regarding `COc1cccc(OC)c1C(=O)Nc1cccc(-c2nn3ccccc3c2-c2ccnc(Nc3cccc(F)c3)n2)c1` [UNC10225310A], the inhibition at 1 µM on CIT came out at 36%; on EPHA8, 17%; on EPHB6, 42%; at FGFR4 it was 0%; on CDK4, 0%; at CDK5, 21%. Also, the inhibition at 1 µM worked out at 3% at CSNK1G3 and 15% on ACVR1B.

For `O=c1cc(N2CCOCC2)nc2n(Cc3cccc(Cl)c3Cl)c(C3CC3)nn12` [UNC10225469A], the inhibition at 1 µM is 0% on CIT; 9% at EPHA8; 33% at EPHB6; 0% at FGFR4; 0% at CDK4; 7% on CDK5. Also, the inhibition at 1 µM on CSNK1G3 came out at 23%; on ACVR1B it was 0%.

`Cn1cc(-c2cnc(N)c3c(-c4ccc5c(c4)CCN5C(=O)Cc4ccccc4)csc23)cn1` [UNC10225012A]: the inhibition at 1 µM is 0% at CIT; 8% at EPHA8; 98.3% on EPHB6; 0% on FGFR4; 0% on CDK4; 2% on CDK5. For the same compound, the inhibition at 1 µM turned out to be 22% at CSNK1G3 and 9% at ACVR1B.

With `CS(=O)(=O)Cc1ccc(Nc2nccc(-c3c(-c4cccc(NC(=O)C5CCCCC5)c4)nn4ncccc34)n2)cc1` [UNC10225159A], the inhibition at 1 µM at CIT stood at 10%; at EPHA8, 15%; at EPHB6, 42%; at FGFR4, 6%; at CDK4, 18%; at CDK5 it was 4%. Also, the inhibition at 1 µM on CSNK1G3 was 4%; at ACVR1B, 0%.

Regarding `Cc1ccc(NC(=O)Nc2cccc(C(F)(F)F)c2)cc1` [UNC10225187A], the inhibition at 1 µM at CIT came to 29%; on EPHA8 it was 3%; on EPHB6, 21%; on FGFR4, 0%; on CDK4, 0%; on CDK5, 0%. Further, the inhibition at 1 µM is 0% at CSNK1G3 and 85% at ACVR1B.

For the origin of these results see PMC5540273, “Progress towards a public chemogenomic set for protein kinases and a call for contributions” (PLoS ONE, 2017).
